Data reported in article PMC10424185, “C-2 Thiophenyl Tryptophan Trimers Inhibit Cellular Entry of SARS-CoV-2 through Interaction with the Viral Spike (S) Protein” (Journal of Medicinal Chemistry, 2023).
Entries after “also recorded” stand apart in the source; their conditions may differ. Where two headings read alike, the source gives them in different places.

Legend:
[1] = system: VSV-SWuhan-Hu-1; assay: microbe, parasite or virus in culture; assay type: cell-based, SARS-CoV-2; conditions: Vesicular stomatitis virus, VeroE6/TMPRSS2, read-out: IC50 ± SD, pseudotyped VSV carrying S of Wuhan-Hu-1
[2] = system: VSV-S (pseudotyped VSV carrying the S protein of Wuhan-Hu-1 SARS-CoV-2); assay: microbe, parasite or virus in culture; assay type: cell-based; conditions: Vesicular stomatitis virus, read-out: IC50 (concentration at which virus infection is reduced by 50%), VSV-S in A549-ACE2-TMPRSS2 cells
[3] = in vitro; conditions: human
[4] = target: binding of human ACE2 catalytic domain to RBD (Severe acute respiratory syndrome coronavirus 2, UniProt P0DTC2); design: species or system SARS-CoV-2 / human
[5] = in vitro; conditions: African green monkey
[6] = system: VSV-G (VSV pseudotyped with its native glycoprotein); assay type: cell-based, vesicular stomatitis virus
[7] = system: VSV-S (pseudotyped VSV carrying the S protein of Wuhan-Hu-1 SARS-CoV-2); assay: microbe, parasite or virus in culture; assay type: cell-based
[8] = system: VSV-SOmicron (S protein of SARS-CoV-2 Omicron BA.1); assay: organism not typed; assay type: cell-based; conditions: read-out: IC50 ± SD, pseudotyped VSV carrying S of Omicron BA.1
[9] = target: T1, SARS-CoV-2 RBD (Severe acute respiratory syndrome coronavirus 2, UniProt P0DTC2); assay type: binding
[10] = target: T1, SARS-CoV-2 RBD; assay: biochemical; assay type: binding
[11] = Vesicular stomatitis virus, Vero C1008, read-out: IC50 (concentration at which virus infection is reduced by 50%), VSV-S in Vero E6 cells

Compound	IC50 [1]	IC50 [2]	CC50 [3]	increase of ACE2 concentrations needed for binding to the RBD [4]	CC50 [5]	antiviral activity against VSV-G [6]	infection (viral GFP reporter) when compound added one-hour post virus addition [7]	infection (viral GFP reporter) when compound added together with the virus [7]	primary HTS screening result (in words) [7]	IC50 [7, 11]	IC50 ([7]; Vesicular stomatitis virus, Vero C1008, read-out: IC50, compound preincubated with the cells)	IC50 ([7]; Vesicular stomatitis virus, Vero C1008, read-out: IC50, compound preincubated with the virus)	IC50 ([7]; read-out: IC50 (concentration at which virus infection is reduced by 50%), VSV-S in Vero E6 cells)	IC50 [8]	effect on thermofluor fluorescence profile / thermal stability of RBD (in words) [9]	antiviral activity in the VSV-S assay (in words) [7]	Kd [10]
NCC(=O)NC(CCC(=O)NC(Cc1c(Sc2ccc([N+](=O)[O-])cc2)[nH]c2ccccc12)C(=O)O)(CCC(=O)NC(Cc1c(Sc2ccc([N+](=O)[O-])cc2)[nH]c2ccccc12)C(=O)O)CCC(=O)NC(Cc1c(Sc2ccc([N+](=O)[O-])cc2)[nH]c2ccccc12)C(=O)O (centres unmarked) [Compound 2]	0.08 ± 0.07 µM	1 ± 0.4 µM	> 100 µM	~10 fold	> 100 µM	no antiviral activity	no decrease in infection	strong reduction in infection	significant antiviral activity in the absence of cytotoxicity	0.64 ± 0.47 µM	0.32 µM	0.48 µM	0.6 ± 0.5 µM	21.7 ± 0.83 µM	shift of the curve toward lower temperatures		
CS(=O)(=O)c1ccc(Sc2[nH]c3ccccc3c2CC(NC(=O)CCC(CCC(=O)NC(Cc2c(Sc3ccc(S(C)(=O)=O)cc3)[nH]c3ccccc23)C(=O)O)(CCC(=O)NC(Cc2c(Sc3ccc(S(C)(=O)=O)cc3)[nH]c3ccccc23)C(=O)O)NC(=O)CN)C(=O)O)cc1 (centres unmarked) [Compound 42]					> 100 µM					> 50 µM					did not cause any change in the curve; also recorded: no effect on the thermal stability of the RBD	no antiviral activity	≥ 2500 µM
